In US11602546B2, “Combination inhibiting MEIS proteins” (YEDÍTEPE ÜNÍVERSÍTESÍ, priority 2016, dated 2023):

Columns and labels:
[1] = dose-dependent in vitro experiments (effective dose); format: cell-based
Method: The effective dose was determined to be 1 μM by means of the dose-dependent in vitro experiments.

[2] = test system: p21-Luc MEIS reporter (Meis1); assay: in vitro p21 luciferase reporter assay in COS cells; format: cell-based; conditions: COS cells, 0.1, 1 and 10 μM, 48 hours
Method: 2—Determining Meis1 Inhibitors by In Vitro Luciferase Reporter Assay
MEIS inhibitors were tested by conducting the luciferase reporter assay. It was observed that MEIS protein activated the luciferase reporters containing increasing doses of p21 promoters. pGL2 vectors comprising p21 gene promoter, which is activated by Meis1, were used in the luciferase assays. Therefore, 0.8 μg p21-pGL2, 400 ng Meis1 expression vector pCMVSPORT6-Meis1 (Open BioSystems) and 0.2 μg p CMV-LacZ (internal control) vector were transfected together to the COS cells. 4 hours later, the cells were treated with prototype MEIS inhibitors (at 0.1, 1 and 10 μM concentrations). 6-well plates and lipofectamine were used for transfection. 48 hours later, the cells were lysed, samples were collected and luciferase activity was determined. Reporter system of Promega (Promega Dual-Glo® Luciferase Assay System) was used for this. Luciferase measurements were normalized according to β-gal measurements (measurements were made at 420 nm). Thermo Lab system Lumino scan Ascent device was used for the luciferase measurements. As a result of these experimental studies, the in silico study, which targeted MEIS homeodomain and was conducted in comparison to the other TALE homeodomain, enabled to determine MEIS-specific hits (Experimental Results (ER): ER-A).

[3] = test system: p21, Hif-1alpha (Hif-1α), Hif-2alpha (Hif-2α) genes in the Meis1 pathway; assay: real-time RT-PCR of Meis1 pathway genes in HSCs; format: cell-based; conditions: HSCs, 0.1, 1 and 10 μM, 3 days, vs DMSO
Method: 3—Testing MEIS Inhibitors by Real-Time RT-PCR
HSCs were prepared for each inhibitor (3 replicates in 6 wells) and cell series containing DMSO were used as control group. For each potential small molecule, assays were conducted at concentrations of 0.1, 1 and 10 μM; and the cells were trypsinized and collected after 3 days and were stored in trizol until RNA isolation was carried out. RNA isolation was performed by using Qiagen in RNeasy mini kit and protocol. cDNA was synthesized from 2 μg RNA by using Invitrogen in Superscript II RT system. Assays were conducted in BioRad CFX 96 Real Time PCR device by using SyberGreen (AppliedBiosystems). GAPDH was used as the control gene and was used for normalizing gene expression by ddCT method. Levels of the p21, Hif-1alpha (Hif-1α), Hif-2alpha (Hif-2α) gene expressions, which are known to be activated by Meis1, were determined and were controlled by DMSO control group (FIG. 3) (ER: B).

[4] = test system: Lin− cells obtained from the bone marrow / HSCs; assay: ex vivo mouse HSC proliferation (Lin− bone marrow cells, flow cytometry); format: cell-based; conditions: dose dependent
Method: 4—Determining the effect of MEIS inhibitor on ex vivo HSC proliferation
Bone marrow isolation from mouse and HSC purification were performed. For this, following euthanasia of 8-12 week old mice with isoflurane, bone marrow cells were obtained from femur and tibia bones. Briefly, Lin−, Sca1+, c-Kit+, CD34low cells (long term HSCs) were obtained by being stained with cell line cocktail with biotin (anti-CD3, anti-CDS, anti-B220, anti-Mac-1, anti-Gr1, anti-Ter119; Stem Cell Technologies), and that was followed by streptavidin-PE/Cy5.5, anti-Sca-1-FITC, anti-KIT-APC, and anti-CD34-PE staining. HSC medium known as SCF medium was used in the culture of the isolated bone marrow cells. […]
HSC frequency and number: The Lin− cells obtained from the bone marrow were treated in the cell culture with MEIS inhibitors or DMSO for 10 days, and subsequently the number of hematopoietic cells (FIG. 4) and the percentage of HSCs (FIGS. 5 and 6) were determined. In order to determine the number of HSCs, the concerned surface antigens (Lin−, Sca1+, c-Kit+, CD34−) were stained with fluorochrome conjugated antibody as in the previous studies and then analyzed with flow cytometry (ER: C).

[5] = test system: human HSCs from bone marrow or umbilical cord blood; assay: human HSC expansion ex vivo; format: cell-based; conditions: human hematopoietic cell culture, in comparison to DMSO control group
Method: Human HSC Expansion: The cells obtained from bone marrow or umbilical cord blood were separated by Percoll and mononuclear cells were obtained. They were transferred to the tubes containing HSC medium. HSC medium known as SCF medium was used in the culture of the isolated bone marrow and umbilical cord blood HSCs. […] Following HSC purification, HSCs were seeded into a 96-well plate (Corning, 3799) at 200-300 HSCs per well; and upon adding maximum 200 μl of MEIS inhibitors mixed in SCF medium into each cell, they were incubated in 5% CO2 and normal O2 level at 37° C. for 7-10 days. Then, the number and percentage (frequency) of the HSCs and of the other hematopoietic progenitor cells were determined. The results were compared with the control group treated with DMSO (ER: E).

[6] = test system: L929 murine fibroblastic cell line; assay: cytotoxic analyses, WST1, L929 cell line; format: cell-based; conditions: L929 cells, 0, 1, 1 and 10 μM doses, 4 days
Method: 6—Cytotoxic Analyses of MEIS Inhibitors
L929 murine fibroblastic cell line was used for cytotoxic analyses of the MEIS inhibitors. The cells were seeded into a 96-well plate (Corning, 3799) at 2000 cells per well. The next day after seeding, the cells were treated by different doses by means of gradient concentration method using final concentrations of 0.1 μM, 1 μM, 10 μM with Meis1 inhibitor 1 (MEISi-1) and Meis1 inhibitor 2 (MEISi-2) mixed into each well in maximum 200 μl DMEM medium, and they were incubated in 5% CO2 and normal O2 level at 37° C. 4 days after the incubation, 10 μl WST1 cell proliferation solution (Boster, AR1159) was added, and after incubation of 4 hours, absorbance measurement was carried out at 450 nm by Thermo Lab system Multiskan Spektrum (ER-G).

[7] = test system: HSCs in mouse bone marrow and blood; assay: in vivo proliferation of HSCs with MEIS inhibitors; conditions: 0.5 mg/kg to 10 mg/kg, 10 days after administration
Method: 5—In Vivo Proliferation of HSCs with MEIS Inhibitors
As an alternative to ex vivo proliferation of HSCs by using small molecules, it was shown that application of MEIS inhibitors directly for in vivo HSC proliferation is also possible. The injected MEIS inhibitors were administered intraperitoneally in the range of 0.5 mg/kg to 10 mg/kg. In order to ensure effective incubation, the inhibitors were administered to the mice in 3 different doses; and 10 days after administration, the amount of the HSCs obtained from the bone marrow of the mice was determined (FIG. 9) (ER: F).

Row | Structure (SMILES) | effective dose [1] [µM] | inhibition of p21-Luc MEIS reporter (luciferase activity) [2] | expression of Hif-1alpha (Hif-1α) gene [3] | expression of Hif-2alpha (Hif-2α) gene [3] | expression of p21 gene [3] | increase in the number of HSCs [4] | ALDHBr HSC number increase [5] [times] | CD34+ HSC number increase [5] [times] | CD34+CD133 HSC number increase [5] [times] | CD133+ HSC number increase [5] [times] | cytotoxicity [6] | HSC number in mouse bone marrow (LSKCD34low cells) [7] | HSC number in the blood (LSKCD150+CD48− cells) [7]
1 | O=C1C=Cc2ccccc2/C1=C/NNC(=O)c1ccc(O)cc1 [MEISi-2, 4-hydroxy-N′-[(Z)-(2-oxonaphthalen-1-ylidene)methyl] benzohydrazide] | 1 | inhibit p21-Luc MEIS reporter in a dose-dependent manner | reduce expression | reduce expression | reduce expression | up to 3 times | 2 | 2 | 2 | 2 | not cytotoxic | successfully increased HSC number | successfully increased HSC number
2 | Cc1cccc(NC(=O)c2ccc(OCC(=O)NCc3ccccc3)cc2)c1C [MEISi-1, 4-[2-(benzylamino)-2-oxoethoxy]-N-(2,3-dimethylphenyl) benzamide] | 1 | inhibit p21-Luc MEIS reporter in a dose-dependent manner | reduce expression | reduce expression | reduce expression | up to 10 times | 2 | 2 | 2 | 2 | not cytotoxic | successfully increased HSC number | successfully increased HSC number
